ChEMBL document CHEMBL1770079, “Discovery of small molecule human FPR1 receptor antagonists” (Bioorg Med Chem Lett, 2011)
In brackets after ≈: the same amount, converted by molar mass. One block for each compound: values may come before it. Activity calls are given as the source filed them. No cut-off for these calls is given here.

Assays:
fMet-Leu-Phe receptor [1] = biological target: T1, fMet-Leu-Phe receptor (Homo sapiens, UniProt P21462); experiment: Intrinsic activity at FPR1 in human neutrophils assessed as increase in calcium mobilization by FLIPR assay relative to fMLF; type: functional
T1 sequence (P21462 whole entry): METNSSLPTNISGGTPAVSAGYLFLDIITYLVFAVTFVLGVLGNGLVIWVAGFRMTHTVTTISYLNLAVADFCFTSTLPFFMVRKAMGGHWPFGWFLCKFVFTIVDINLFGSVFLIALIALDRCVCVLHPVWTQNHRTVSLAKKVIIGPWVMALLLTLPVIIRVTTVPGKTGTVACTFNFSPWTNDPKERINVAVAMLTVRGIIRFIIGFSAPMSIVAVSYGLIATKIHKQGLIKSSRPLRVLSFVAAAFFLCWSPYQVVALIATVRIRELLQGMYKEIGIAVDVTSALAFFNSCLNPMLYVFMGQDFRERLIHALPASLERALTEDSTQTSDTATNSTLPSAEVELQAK

fMet-Leu-Phe receptor [2] = biological target: T1, fMet-Leu-Phe receptor; experiment: Antagonist activity at FPR1; type: functional
[3] = Intrinsic clearance in human microsomes; type: ADME, Microsome
[4] = biological target: T2, fMet-Leu-Phe receptor (Homo sapiens) (UniProt P21462); experiment: Agonist activity at FPR1 in human neutrophils assessed as increase in calcium mobilization by FLIPR assay; type: functional; parameters: concentration or dose not given beside the values; conditions: concentration not given here
T2 sequence (whole entry): T1 sequence (P21462 whole entry)

[5] = biological target: T2, fMet-Leu-Phe receptor (Homo sapiens); experiment: Antagonist activity at FPR1 in human neutrophils assessed as inhibition of fMLF-stimulated calcium mobilization at 50 uM by FLIPR assay; type: functional
[6] = biological target: T3, N-formyl peptide receptor 2 (Homo sapiens) (UniProt P25090); experiment: Antagonist activity at FPR2 in human neutrophils assessed as inhibition of SHHGtide-stimulated intracellular calcium mobilisation at 50 uM by FLIPR assay; type: functional, cell-based
T3 sequence (whole entry): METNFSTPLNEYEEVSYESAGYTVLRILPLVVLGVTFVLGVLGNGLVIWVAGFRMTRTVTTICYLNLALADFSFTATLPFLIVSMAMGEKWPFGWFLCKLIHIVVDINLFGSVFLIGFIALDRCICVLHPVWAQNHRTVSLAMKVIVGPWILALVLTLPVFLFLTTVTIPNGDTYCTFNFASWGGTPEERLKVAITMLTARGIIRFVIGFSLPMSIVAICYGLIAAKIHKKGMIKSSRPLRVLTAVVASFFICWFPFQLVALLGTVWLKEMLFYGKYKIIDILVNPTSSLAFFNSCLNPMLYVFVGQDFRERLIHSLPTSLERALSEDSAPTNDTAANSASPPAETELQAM

THP-1 = experiment: Cytotoxicity against human THP1 cells assessed as cell viability after 24 hrs by Alamar blue assay; type: cell-based; conditions: THP-1, 24 h
[7] = Solubility of the compound in 0.1 M phosphate buffer; type: physicochemical
[8] = Antagonist activity at rat FPR1 expressed in HEK293 cells assessed as inhibition of fMLF-stimulated intracellular calcium mobilisation by FLIPR assay; type: functional, cell-based
[9] = biological target: T4, C-X-C chemokine receptor type 2 (Homo sapiens) (UniProt P25025); experiment: Antagonist activity at CXCR2 in human neutrophils assessed as inhibition of GROalpha-stimulated intracellular calcium mobilization at 50 uM by FLIPR assay; type: functional, cell-based
T4 sequence (whole entry): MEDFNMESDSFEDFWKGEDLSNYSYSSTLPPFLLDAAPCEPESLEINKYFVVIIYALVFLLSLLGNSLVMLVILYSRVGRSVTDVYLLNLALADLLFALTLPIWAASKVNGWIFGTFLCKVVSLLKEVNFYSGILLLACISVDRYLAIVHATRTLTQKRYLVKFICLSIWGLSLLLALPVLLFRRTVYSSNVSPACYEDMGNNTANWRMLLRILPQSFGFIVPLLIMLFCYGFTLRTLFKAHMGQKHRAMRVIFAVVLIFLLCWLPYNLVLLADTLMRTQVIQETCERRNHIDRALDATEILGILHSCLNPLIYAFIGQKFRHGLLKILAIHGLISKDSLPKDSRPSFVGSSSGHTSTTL

fMet-Leu-Phe receptor [10] = biological target: T1, fMet-Leu-Phe receptor; experiment: Antagonist activity at FPR1 in human neutrophils assessed as inhibition of fMLF-stimulated degranulation after 15 mins by fluorescence assay; type: functional
[11] = biological target: T2, fMet-Leu-Phe receptor (Homo sapiens); experiment: Reversible inhibition of FPR1 in human neutrophils assessed as inhibition of fMLF-stimulated calcium mobilisation by FLIPR assay; type: functional
fMet-Leu-Phe receptor [12] = biological target: T1, fMet-Leu-Phe receptor; experiment: Antagonist activity at FPR1 in human neutrophils assessed as inhibition of fMLF-stimulated calcium mobilization by FLIPR assay; type: functional
[13] = biological target: T2, fMet-Leu-Phe receptor (Homo sapiens); experiment: Agonist activity at FPR1 in human neutrophils assessed as increase in calcium mobilization at 50 uM by FLIPR assay; type: functional
fMet-Leu-Phe receptor [14] = biological target: T1, fMet-Leu-Phe receptor; experiment: Displacement of [3H]fMLF from human FPR1 expressed in CHO cells by scintillation counting; type: cell-based
fMet-Leu-Phe receptor [15] = biological target: T1, fMet-Leu-Phe receptor; experiment: Antagonist activity at human FPR1 in expressed in HEK293 cells assessed as inhibition of fMLF-stimulated intracellular calcium mobilisation after 5 mins by FLIPR assay; type: functional, cell-based
[16] = biological target: T5, C5a anaphylatoxin chemotactic receptor 1 (Homo sapiens) (UniProt P21730); experiment: Antagonist activity at C5aR in human neutrophils assessed as inhibition of C5a-stimulated intracellular calcium mobilization at 50 uM by FLIPR assay; type: functional, cell-based
T5 sequence (whole entry): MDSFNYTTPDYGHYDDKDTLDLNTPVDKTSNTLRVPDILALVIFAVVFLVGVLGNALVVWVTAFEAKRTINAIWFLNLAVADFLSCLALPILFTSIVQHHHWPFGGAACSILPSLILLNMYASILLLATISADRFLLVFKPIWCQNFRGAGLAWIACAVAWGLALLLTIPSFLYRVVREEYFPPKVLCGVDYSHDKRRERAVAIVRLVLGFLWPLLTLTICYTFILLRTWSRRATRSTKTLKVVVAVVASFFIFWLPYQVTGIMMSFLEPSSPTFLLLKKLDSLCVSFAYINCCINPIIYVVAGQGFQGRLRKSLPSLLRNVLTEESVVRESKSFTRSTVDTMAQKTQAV

[17] = biological target: T6, fMet-Leu-Phe receptor (Mus musculus) (UniProt P33766); experiment: Antagonist activity at mouse FPR1 expressed in HEK293 cells assessed as inhibition of fMLFF-stimulated intracellular calcium mobilisation at 50 uM by FLIPR assay; type: functional, cell-based
T6 sequence (whole entry): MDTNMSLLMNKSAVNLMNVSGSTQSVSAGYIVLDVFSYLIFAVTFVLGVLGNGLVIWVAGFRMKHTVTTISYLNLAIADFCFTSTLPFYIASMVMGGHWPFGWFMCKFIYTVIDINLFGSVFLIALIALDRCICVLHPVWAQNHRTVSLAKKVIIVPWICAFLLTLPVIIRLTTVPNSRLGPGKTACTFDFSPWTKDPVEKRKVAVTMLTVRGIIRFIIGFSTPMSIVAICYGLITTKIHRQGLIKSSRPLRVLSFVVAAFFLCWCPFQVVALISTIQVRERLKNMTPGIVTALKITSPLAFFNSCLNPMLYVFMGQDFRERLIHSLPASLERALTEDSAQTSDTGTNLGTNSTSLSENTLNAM

[18] = biological target: T2, fMet-Leu-Phe receptor (Homo sapiens); experiment: Antagonist activity at FPR1 in human neutrophils assessed as inhibition of PMA-stimulated neutrophil degranulation after 15 mins by fluorescence assay; type: functional

IC50 (fMet-Leu-Phe receptor [1]): 2000 nM
Structure (SMILES): CSCCC(NC(=O)c1sccc1Cl)c1nc2ccccc2[nH]1 (configuration not stated)

IC50 (fMet-Leu-Phe receptor [1]): 3980 nM
Structure (SMILES): CSCCC(NC(=O)c1oc2ccccc2c1C)c1nc2ccccc2[nH]1 (configuration not stated)

IC50 (fMet-Leu-Phe receptor [2]): 5010 nM
Structure (SMILES): CC(C)C(C(=O)O)N1C(=O)/C(=C2/C(=O)N(C)c3ccccc32)SC1=S (configuration not stated)

microsomal CLint [3]: 3 µL/min/mg
IC50 (fMet-Leu-Phe receptor [1]): 10000 nM
Structure (SMILES): CCOc1ccc2oc(C(=O)NC(CS(C)(=O)=O)c3nc4ccccc4[nH]3)c(C)c2c1 (configuration not stated)

IC50 (fMet-Leu-Phe receptor [1]): 794 nM
Structure (SMILES): Cc1cccc(C)c1NC(=O)C(NC(=O)c1ccccc1O)c1ccc(Cl)cc1 (configuration not stated)

inhibition [4]: < 25%
IC50 (fMet-Leu-Phe receptor [1]): 6310 nM
Structure (SMILES): CSCCC(NC(=O)c1sccc1Cl)c1ncc(-c2ccccc2)[nH]1 (configuration not stated)

IC50 (fMet-Leu-Phe receptor [1]): 10000 nM
Structure (SMILES): CSCCC(NC(=O)c1cnccn1)c1nc2ccccc2[nH]1 (configuration not stated)

IC50 (fMet-Leu-Phe receptor [1]): 794 nM
Structure (SMILES): Cc1cccc(C)c1NC(=O)C(NC(=O)c1ccccc1O)C1CCCCC1 (configuration not stated)

IC50 (fMet-Leu-Phe receptor [1]): 3980 nM
Structure (SMILES): CSCCC(NC(=O)c1occc1C)c1nc2ccccc2[nH]1 (configuration not stated)

IC50 (fMet-Leu-Phe receptor [1]): 631 nM
Structure (SMILES): CCOc1ccc2oc(C(=O)N[C@H](CSC)c3nc4ccccc4[nH]3)c(C)c2c1

inhibition [5]: < 25%
Structure (SMILES): CSCCC(NC(=O)Cc1ccccc1)c1nc2ccccc2[nH]1 (configuration not stated)

IC50 (fMet-Leu-Phe receptor [1]): 1260 nM
Structure (SMILES): Cc1cccc(C)c1NC(=O)C(NC(=O)c1ccccc1O)c1ccccc1 (configuration not stated)

inhibition [5]: < 25%
Structure (SMILES): COc1ccccc1C(=O)NC(CCSC)c1nc2ccccc2[nH]1 (configuration not stated)

IC50 (fMet-Leu-Phe receptor [1]): 2510 nM
Structure (SMILES): O=C(NC(C(=O)NC1CCCCC1)c1ccc(Cl)cc1)c1ccccc1O (configuration not stated)

IC50 (fMet-Leu-Phe receptor [1]): 5010 nM
Structure (SMILES): O=C(NC(C(=O)Nc1ccccc1)c1ccc(Cl)cc1)c1ccccc1O (configuration not stated)

IC50 (fMet-Leu-Phe receptor [1]): 10000 nM
Structure (SMILES): CSCCC(NC(=O)c1ccc(C)cc1)c1nc2ccccc2[nH]1 (configuration not stated)

inhibition [4]: < 25%
IC50 (fMet-Leu-Phe receptor [1]): 316 nM
Structure (SMILES): CSCCC(NC(=O)c1ccccc1)c1nc2ccccc2n1Cc1ccc(C#N)cc1 (configuration not stated)

inhibition [6]: < 25%
solubility [7]: 17 µM (≈ 7.2 µg/mL)
IC50 [8]: 10000 nM
IC50 (fMet-Leu-Phe receptor [1]): 501 nM
inhibition [9]: < 25%
IC50 (fMet-Leu-Phe receptor [10]): 158 nM
inhibition [11]: Active
IC50 (fMet-Leu-Phe receptor [12]): 501 nM
inhibition [13]: < 25%
IC50 (fMet-Leu-Phe receptor [14]): 31.6 nM
IC50 (fMet-Leu-Phe receptor [15]): 3160 nM
inhibition [17]: < 25%
inhibition [18]: < 25%
Structure (SMILES): CCOc1ccc2oc(C(=O)NC(CCSC)c3nc4ccccc4[nH]3)c(C)c2c1 (configuration not stated)
IC50 (THP-1): 100000 nM
inhibition [16]: < 25%

microsomal CLint [3]: 14 µL/min/mg
inhibition [5]: < 25%
Structure (SMILES): CCOc1ccc2oc(C(=O)NC(c3ccccc3)c3nc4ccccc4[nH]3)c(C)c2c1 (configuration not stated)
